The numbers were not newly measured in US20030004177A1, “Abuse-resistant opioid dosage form” (Endo Pharmaceuticals, Inc., priority 2001, published 2003), which cites them from elsewhere.

Like-named read-outs stand apart in the source and are kept apart here.

The test system of one series is opioid effect. As to conditions: injection or intranasal administration.

For `C=CCN1CC[C@]23c4c5ccc(O)c4O[C@H]2C(=O)CC[C@@]3(O)[C@H]1C5` [naloxone], the bioavailability result was “very low” (administered orally) and “high” (administered parenterally). Further, the “amount needed to antagonize the opioid effect, to induce abstinence in dependent individuals, and to prevent abuse” value in the series with opioid effect is 0.2 to 0.4 mg.
